Measurements from patent publication US6603046B1, “Bis-aromatic a,β-unsaturated ketones” (Lica Pharmaceuticals A/S, priority 1992, dated 2003).
≈ marks a conversion by molar mass, not a printed value. Where “and” joins values, the source holds several entries; their conditions need not be identical. Identical values can stand only once. Like-named read-outs stand apart in the source and are kept apart here.

Columns and labels:
Corynebacterium species = assay: microbe, parasite or virus in culture; assay type: cell-based
[1] = test system: chloroquine-sensitive P. falciparum 3D7A strain; assay: In vitro growth of P. falciparum 3D7A, 3H-hypoxanthine uptake (Example 15); assay type: cell-based, Plasmodium falciparum; settings: for Percentage inhibition of 3H-hypoxanthine uptake (mean ± SEM): title: percentage inhibition of 3H-hypoxanthine uptake
L. micdadei = assay: microbe, parasite or virus in culture; assay type: cell-based, Legionella micdadei
Mycobacteria = assay type: cell-based
M. avium = assay: Radiometric MIC (Example 19); assay type: cell-based
Streptococcus pneumonia = assay: MIC, macrodilution (Example 17); assay type: cell-based; settings: Streptococcus pneumoniae; 1 strain
[2] = test system: human monocytes/macrophages; assay: Electron microscopy of human monocytes/macrophages with and without ingested L. major (Example 12); settings: for ultrastructure of macrophage: macrophage alone
P. yoelii strain YM = P. yoelii strain YM infection in mice, parasitemia and mortality (Example 16); assay type: in vivo, BALB/c mice; settings: for % parasitemia, Mean: orally 100 mg/kg/dose 3 and 24 h after infection
[3] = D + 2, 10 mg per kg twice daily days +1 to +4
[4] = D + 3, 10 mg per kg twice daily days +1 to +4
[5] = D + 4, 10 mg per kg twice daily days +1 to +4
[6] = D + 5, 10 mg per kg twice daily days +1 to +4
[7] = D + 6, 10 mg per kg twice daily days +1 to +4
[8] = D + 7, 10 mg per kg twice daily days +1 to +4
[9] = D + 8, 10 mg per kg twice daily days +1 to +4

C=CC(C)(C)c1cc(/C=C/C(=O)c2ccc(O)cc2)c(OC)cc1O [Licochalcone A, licochalcone A]
MIC (Corynebacterium species): 0.3 to 4 µg/mL (≈ 0.887 to 11.8 µM) | MIC (Corynebacterium species; read-out: MIC of one very sensitive corynebacterium species): 0.3 µg/mL | IC50 ([1]; Plasmodium falciparum, read-out: concentration in which growth was retarded by 50%): 0.5 to 1 µg/mL (≈ 1.48 to 2.96 µM) | Percentage inhibition of 3H-hypoxanthine uptake (mean ± SEM) ([1]; 0.1 μg/ml): 15.0 ± 3.0% | Percentage inhibition of 3H-hypoxanthine uptake (mean ± SEM) ([1]; 0.5 μg/ml): 39.0 ± 6.0% | Percentage inhibition of 3H-hypoxanthine uptake (mean ± SEM) ([1]; 1 μg/ml): 69.0 ± 4.0% | Percentage inhibition of 3H-hypoxanthine uptake (mean ± SEM) ([1]; 5 μg/ml): 98.0 ± 0.001% | Percentage inhibition of 3H-hypoxanthine uptake (mean ± SEM) ([1]; 10 μg/ml): 98.0 ± 0.0001% | MIC (L. micdadei; Fluoribacter gormanii, read-out: MIC-values, Legionella gormanii and the 4 L. micdadei isolates): 15 to 500 µg/mL (≈ 44.3 to 1480 µM) | MIC (L. micdadei; Legionella micdadei, L. micdadei (Bari)): 60 µg/mL (≈ 177 µM) | MIC (L. micdadei; Legionella micdadei, L. micdadei (Detroit)): 15 µg/mL (≈ 44.3 µM) | MIC (L. micdadei; Legionella micdadei, L. micdadei (F 1433)): 60 µg/mL (≈ 177 µM) | MIC (L. micdadei; Legionella micdadei, L. micdadei, 1 strain): 500 µg/mL (≈ 1480 µM) | Species with MIC ≦ 20 μg/ml (Mycobacteria): M. kansasii and M. xenophii and M. marinum and M. tuberculosis and M. bovis and BCG | meanMIC (M. avium; AIDS patients, n=4): > 80 µg/mL | MIC (M. avium; Mycobacterium avium, read-out: MIC, all M. avium/intracellular strains): ≥ 20 µg/mL | meanMIC (M. avium; non AIDS patients, n=7): > 80 µg/mL | MIC (Streptococcus pneumonia): 4 µg/mL (≈ 11.8 µM) | intracellular amastigotes, electron microscopy ([2]; macrophage + L. major, 10 μg/ml): Most of the intracellular amastigotes were now killed | ultrastructure of macrophage ([2]; 5 μg/ml): No changes compared to the control culture | ultrastructure of macrophage ([2]; 10 μg/ml): No changes compared to the control culture | Parasitemia, mean (P. yoelii strain YM; [3]): 0.1% | Parasitemia, single mice (P. yoelii strain YM; [3]): 0.1% and 0.01% | Parasitemia, mean (P. yoelii strain YM; [4]): 0.2% | Parasitemia, single mice (P. yoelii strain YM; [4]): 0.00% and 0.5% and 0.01% | Parasitemia, mean (P. yoelii strain YM; [5]): 0.4% | Parasitemia, single mice (P. yoelii strain YM; [5]): 0.00% and 1.2% | Parasitemia, single mice (P. yoelii strain YM; D + 4, 10 mg/kg/day in 2 injections, days +1 to +6, 10 mg/kg/day): 1.5% and 4.0% | Parasitemia, single mice (P. yoelii strain YM; D + 4, 20 mg/kg/day in 2 injections, days +1 to +6, 20 mg/kg/day): 0.01% and 0.0% | Parasitemia, single mice (P. yoelii strain YM; D + 4, 40 mg/kg/day in 2 injections, days +1 to +6, 40 mg/kg/day): 0.1% and 0.5% | % parasitemia (mean ± SEM) (P. yoelii strain YM; D + 4, i.p. 5 mg/kg/day twice daily, 3 h after infection and D + 1 to D + 3): 1.6 ± 0.6% | % parasitemia (mean ± SEM) (P. yoelii strain YM; D + 4, i.p. 10 mg/kg four times daily D + 4 to D + 7): 14.2 ± 3.8% | % parasitemia (mean ± SEM) (P. yoelii strain YM; D + 4, i.p. 10 mg/kg twice daily D-1, D0): 1.2 ± 1.1% | % parasitemia (mean ± SEM) (P. yoelii strain YM; D + 4, i.p. 10 mg/kg/day twice daily, 3 h after infection and D + 1 to D + 3): 1.1 ± 1.0% | % parasitemia (mean ± SEM) (P. yoelii strain YM; D + 4, i.p. 15 mg/kg/day twice daily, 3 h after infection and D + 1 to D + 3): 2.0 ± 2.0% | % parasitemia, Mean (P. yoelii strain YM; D + 4): 1.0% | Parasitemia, mean (P. yoelii strain YM; [6]): 0.7% | Parasitemia, single mice (P. yoelii strain YM; [6]): 0.1% and 1.5% and 0.00% | Parasitemia, single mice (P. yoelii strain YM; D + 5, 10 mg/kg/day in 2 injections, days +1 to +6, 10 mg/kg/day): 1.5% and 3.0% | Parasitemia, single mice (P. yoelii strain YM; D + 5, 20 mg/kg/day in 2 injections, days +1 to +6): 0.0% | Parasitemia, single mice (P. yoelii strain YM; D + 5, 40 mg/kg/day in 2 injections, days +1 to +6, 40 mg/kg/day): 0.5% and 1.0% | Parasitemia, mean (P. yoelii strain YM; [7]): 2.2% | Parasitemia, single mice (P. yoelii strain YM; [7]): 1.0% and 4.0% and 1.5% | Parasitemia, single mice (P. yoelii strain YM; D + 6, 10 mg/kg/day in 2 injections, days +1 to +6, 10 mg/kg/day): 2.0% and 2.5% | % parasitemia (mean ± SEM) (P. yoelii strain YM; D + 6, 10 mg/kg/day twice daily, 3 h after infection, D + 1 to D + 5): 0.1 ± 0.1% | % parasitemia (mean ± SEM) (P. yoelii strain YM; D + 6, 15 mg/kg/day twice daily, 3 h after infection, D + 1 to D + 5): 0% | Parasitemia, single mice (P. yoelii strain YM; D + 6, 20 mg/kg/day in 2 injections, days +1 to +6): 0.0% | Parasitemia, single mice (P. yoelii strain YM; D + 6, 40 mg/kg/day in 2 injections, days +1 to +6, 40 mg/kg/day): 1.0% and 1.5% | % parasitemia (mean ± SEM) (P. yoelii strain YM; D + 6, i.p. 5 mg/kg/day twice daily, 3 h after infection and D + 1 to D + 3): 13.8 ± 4.4% | % parasitemia (mean ± SEM) (P. yoelii strain YM; D + 6, i.p. 10 mg/kg four times daily D + 4 to D + 7): 6.6 ± 1.5% | % parasitemia (mean ± SEM) (P. yoelii strain YM; D + 6, i.p. 10 mg/kg twice daily D-1, D0): 9.7 ± 0.7% | % parasitemia (mean ± SEM) (P. yoelii strain YM; D + 6, i.p. 10 mg/kg/day twice daily, 3 h after infection and D + 1 to D + 3): 14.2 ± 4.6% | % parasitemia (mean ± SEM) (P. yoelii strain YM; D + 6, i.p. 15 mg/kg/day twice daily, 3 h after infection and D + 1 to D + 3): 10.4 ± 7.4% | Parasitemia, mean (P. yoelii strain YM; [8]): 3.0% | Parasitemia, single mice (P. yoelii strain YM; [8]): 2.0% and 4.0% and 3.0% | Parasitemia, single mice (P. yoelii strain YM; D + 7, 10 mg/kg/day in 2 injections, days +1 to +6, 10 mg/kg/day): 8.0% and 10.0% | Parasitemia, single mice (P. yoelii strain YM; D + 7, 20 mg/kg/day in 2 injections, days +1 to +6, 20 mg/kg/day): 0.01% and 0.05% | Parasitemia, single mice (P. yoelii strain YM; D + 7, 40 mg/kg/day in 2 injections, days +1 to +6, 40 mg/kg/day): 4.5% and 5.8% | % parasitemia, Mean (P. yoelii strain YM; D + 7): 9.7% | Parasitemia, mean (P. yoelii strain YM; [9]): 6.7% | Parasitemia, single mice (P. yoelii strain YM; [9]): 4.0% and 8.0% | Parasitemia, single mice (P. yoelii strain YM; D + 8, 10 mg/kg/day in 2 injections, days +1 to +6, 10 mg/kg/day): 18.0% and 20.0% | % parasitemia (mean ± SEM) (P. yoelii strain YM; D + 8, 10 mg/kg/day twice daily, 3 h after infection, D + 1 to D + 5): 0.7 ± 0.4% | % parasitemia (mean ± SEM) (P. yoelii strain YM; D + 8, 15 mg/kg/day twice daily, 3 h after infection, D + 1 to D + 5): 0% | Parasitemia, single mice (P. yoelii strain YM; D + 8, 20 mg/kg/day in 2 injections, days +1 to +6, 20 mg/kg/day): 1.0% and 1.5% | Parasitemia, single mice (P. yoelii strain YM; D + 8, 40 mg/kg/day in 2 injections, days +1 to +6, 40 mg/kg/day): 12.0% and 15.0% | % parasitemia (mean ± SEM) (P. yoelii strain YM; D + 8, i.p. 5 mg/kg/day twice daily, 3 h after infection and D + 1 to D + 3): 36.6 ± 5.7% | % parasitemia (mean ± SEM) (P. yoelii strain YM; D + 8, i.p. 10 mg/kg four times daily D + 4 to D + 7): 17 ± 6.2% | % parasitemia (mean ± SEM) (P. yoelii strain YM; D + 8, i.p. 10 mg/kg twice daily D-1, D0): 27.8 ± 16.1% | % parasitemia (mean ± SEM) (P. yoelii strain YM; D + 8, i.p. 10 mg/kg/day twice daily, 3 h after infection and D + 1 to D + 3): 30.2 ± 6.4% | % parasitemia (mean ± SEM) (P. yoelii strain YM; D + 8, i.p. 15 mg/kg/day twice daily, 3 h after infection and D + 1 to D + 3): 22 ± 11.6% | Parasitemia, mean (P. yoelii strain YM; D + 9, 10 mg per kg twice daily days +1 to +4): 23.0%
